Test results: paper PMC3849647, “Pharmacokinetics and biodistribution of the cyclin-dependent kinase inhibitor -CR8- in mice” (BMC Pharmacology & Toxicology, 2013)
Several values for one entry are separate records, joined by “and”; a condition that tells them apart may be missing. Equal values may be shown once. Read-outs that look alike come from different tables or passages of the source.

Key:
[1] = Stability of CR8 in plasma quality control samples and solution; type: physicochemical, human
Description: Four quality control samples at concentrations of 0.75, 1.5, 3.5 and 7.0 μg/ml were also prepared in triplicate and stored at room temperature, +4°C and −20°C for stability testing.
The stability of CR8 was determined in plasma samples using concentrations of 0.75, 1.5, 3.5 and 7.0 μg/ml (in triplicate). The samples were kept at room temperature, +4°C and −20°C and analyzed twice weekly for 2 months. Peak areas of all the samples were compared to peak areas obtained at time zero.

[2] = Pharmacokinetics of CR8 in mouse plasma after oral and i.v. administration (HPLC-UV); type: in vivo, mice
Description: 70 μl plasma was added to 140 μl methanol and vortexed for 15 sec. Samples were centrifuged at 10000 g for 10 minutes, and 50 μl from the supernatant were injected into the HPLC system.
Female BALB/c mice 8–10 weeks old and weighing 18–21 g were obtained from Scanbur, Sollentuna, Sweden. The mice were allowed to acclimatize to their surroundings for one week before starting treatment. The mice were fed pelleted food and water ad libitum.
CR8 was dissolved in DMSO: 50 mM HCl (10:90 v/v). The first group of mice received i.v. doses of CR8 (50 mg/kg body weight), the second received oral doses of CR8 (100 mg/kg body weight) and three control mice received vehicle alone. Three mice were sacrificed at each time point and blood samples were collected by cardiac puncture into heparinized tubes at 10, 20, 30, 60 min, 2, 4, 6, 8 h post administration. Blood samples were centrifuged immediately after collection at 3000 g for 5 min at 4°C and the plasma was prepared as mentioned previously. Supernatants were collected and all samples were frozen at −20°C directly after preparation until further analysis by HPLC. Other organs including liver, spleen, kidneys, brain, adipose tissue and lungs were removed, washed and snap frozen immediately in liquid nitrogen. Bone marrow was flushed from both femurs and mononuclear cells were counted and frozen. The samples were stored at −20°C to avoid any metabolic activity.
Parameters including distribution volume of the central compartment, elimination rate constant, plasma maximum concentration and micro constants were estimated. Clearance (Cl) and distribution volume at the steady state were calculated from the primary parameters. The plasma concentration versus time curves (AUC) were calculated from the model derived parameters, and the elimination half-lives were calculated from the slope of the terminal elimination phase. Bone marrow data were derived after adjustment of concentrations to 10^9 cells (= approx. 1 g of tissue). The pharmacokinetic modeling was performed using WinNonlin version 5.2 (Pharsight, USA).
Oral bioavailability (F) defined as the fraction of the oral administered dose of CR8 that reaches the systemic circulation was calculated according to the following formula:
F=AUCpo∗doseIV/AUCIV∗dosepo

[3] = Biodistribution of CR8 to mouse organs after oral administration; type: in vivo, mice; parameters: V2/F: unit not given here; conditions: for AUC / Beta-HL / V2/F / Cmax: single oral 100 mg/kg; for Tissue/plasma exposure ratio (% AUC organ vs. AUC plasma) / Kp: oral 100 mg/kg, 100 mg/kg; for Kp / Cmax: female, BALB/c, mouse; for Kp: po
Description: CR8 was dissolved in DMSO: 50 mM HCl (10:90 v/v). The first group of mice received i.v. doses of CR8 (50 mg/kg body weight), the second received oral doses of CR8 (100 mg/kg body weight) and three control mice received vehicle alone. […] Supernatants were collected and all samples were frozen at −20°C directly after preparation until further analysis by HPLC. Other organs including liver, spleen, kidneys, brain, adipose tissue and lungs were removed, washed and snap frozen immediately in liquid nitrogen. Bone marrow was flushed from both femurs and mononuclear cells were counted and frozen. The samples were stored at −20°C to avoid any metabolic activity. […] Femurs were removed and cleaned; bone marrow was flushed with 0.3 ml of PBS and single cell suspension was prepared by gentle flushing through needle and syringe. Nucleated cells were counted using Türk solution and bone marrow was stored at −20°C until assay. Parameters including distribution volume of the central compartment, elimination rate constant, plasma maximum concentration and micro constants were estimated. Clearance (Cl) and distribution volume at the steady state were calculated from the primary parameters. The plasma concentration versus time curves (AUC) were calculated from the model derived parameters, and the elimination half-lives were calculated from the slope of the terminal elimination phase. Bone marrow data were derived after adjustment of concentrations to 10^9 cells (= approx. 1 g of tissue). The pharmacokinetic modeling was performed using WinNonlin version 5.2 (Pharsight, USA).

CDK5/p25 = test system: CDK5/p25; parameters: method as in PMID 18574471; conditions: cited from earlier work
casein kinase 1 (CK1) = molecular target: casein kinase 1 (CK1); parameters: method as in PMID 18574471; conditions: cited from earlier work
tumor cell lines = conditions: cited from earlier work
CDK = test system: CDK; parameters: method as in PMID 18574471; conditions: in-vitro; cited from earlier work
[4] = given i.v. at the same dosage; cited from earlier work
[5] = bone marrow vs plasma; cited from earlier work

Structure (SMILES): CC[C@H](CO)Nc1nc(NCc2ccc(-c3ccccn3)cc2)c2ncn(C(C)C)c2n1 [CR8]
- Stability (concentration of QC samples remaining vs time zero) ([1]; plasma QC samples, 2 months at room temperature, +4°C or −20°C): approximately 97 ± 3.5%
- Time for which stable ([1]; room temperature, in both solution and plasma): 2 months
- Beta-HL ([2]; Plasma, single oral 100 mg/kg): 3.10 h
- V2/F ([2]; Plasma, single oral 100 mg/kg): 21.0
- half-life ([2]; female, BALB/c, mouse, plasma, female BALB/c mice, read-out: Half-life (converted)): ~3 h
- AUC ([2]; female, BALB/c, mouse, plasma, iv, 50 mg/kg, plasma, 50 mg/kg intravenously, read-out: AUC): ~45000 ng·h/mL
- Cmax ([2]; female, BALB/c, mouse, plasma, iv, 50 mg/kg, plasma, i.v. bolus 50 mg/kg, estimated, read-out: Cmax (maximum reached concentration)): > 100000 ng/mL
- AUC ([2]; female, BALB/c, mouse, plasma, iv, 50 mg/kg, plasma, i.v. bolus 50 mg/kg, mice, read-out: AUC (area under time plasma concentration curve)): 44400 ± 3300 ng·h/mL
- half-life ([2]; female, BALB/c, mouse, plasma, iv, 50 mg/kg, plasma, i.v. bolus 50 mg/kg, read-out: Tα (first elimination half-life) (converted)): 0.11 ± 0.01 h
- half-life ([2]; female, BALB/c, mouse, plasma, iv, 50 mg/kg, plasma, i.v. bolus 50 mg/kg, read-out: Tβ (terminal elimination half-life) (converted)): 2.95 ± 0.11 h
- clearance ([2]; female, BALB/c, mouse, plasma, iv, i.v. bolus 50 mg/kg, read-out: CL (clearance) (converted)): 0.383 mL/min
- Vd ([2]; female, BALB/c, mouse, plasma, iv, i.v. bolus 50 mg/kg, read-out: Vss (distribution volume at steady state)): 0.044 ± 0.004 L
- half-life ([2]; female, BALB/c, mouse, plasma, mice, read-out: Elimination half-life (converted)): ~3 h
- bioavailability ([2]; female, BALB/c, mouse, plasma, oral, 100 mg/kg, oral 100 mg/kg vs i.v. 50 mg/kg, F=AUCpo*doseIV/AUCIV*dosepo): ~100%
- Tmax ([2]; female, BALB/c, mouse, plasma, oral, 100 mg/kg, mice, read-out: Time of maximum concentrations (converted)): 0.5 h
- AUC ([2]; female, BALB/c, mouse, plasma, po, 100 mg/kg, Plasma, single oral 100 mg/kg, read-out: AUC): 96000 ng·h/mL
- Cmax ([2]; female, BALB/c, mouse, plasma, po, 100 mg/kg, Plasma, single oral 100 mg/kg, read-out: Cmax): 34300 ng/mL
- AUC ([2]; female, BALB/c, mouse, plasma, po, 100 mg/kg, plasma, 100 mg/kg orally, read-out: AUC): ~100000 ng·h/mL
- AUC ([2]; female, BALB/c, mouse, plasma, po, 100 mg/kg, plasma, single oral 100 mg/kg, mice, read-out: AUC (area under time plasma concentration curve)): 96300 ± 10500 ng·h/mL
- Cmax ([2]; female, BALB/c, mouse, plasma, po, 100 mg/kg, plasma, single oral 100 mg/kg, read-out: Cmax (maximum reached concentration)): 34300 ± 1940 ng/mL
- half-life ([2]; female, BALB/c, mouse, plasma, po, 100 mg/kg, plasma, single oral 100 mg/kg, read-out: Tα (first elimination half-life) (converted)): 1.3 ± 0.43 h
- half-life ([2]; female, BALB/c, mouse, plasma, po, 100 mg/kg, plasma, single oral 100 mg/kg, read-out: Tβ (terminal elimination half-life) (converted)): 3.1 ± 0.35 h
- Cmax after i.v. compared to oral administration ([2]; i.v. 50 mg/kg vs oral 100 mg/kg): 4 fold
- CL (clearance) ([2]; single oral 100 mg/kg): 21 ± 2 mL/h
- Vss (distribution volume at steady state) ([2]; single oral 100 mg/kg): 21 ± 3 mL
- AUC ([3]; Adipose tissue): 181 µg·h/g
- Beta-HL ([3]; Adipose tissue): 2.40 h
- V2/F ([3]; Adipose tissue): 38.2
- AUC ([3]; Bone marrow (10^9 cells = approx. 1 g)): 34 µg·h/g
- Beta-HL ([3]; Bone marrow): 1.98 h
- V2/F ([3]; Bone marrow): 84.5
- AUC ([3]; Brain): 14 µg·h/g
- Beta-HL ([3]; Brain): 2.12 h
- V2/F ([3]; Brain): 447.5
- AUC ([3]; Kidney): 145 µg·h/g
- Beta-HL ([3]; Kidney): 2.62 h
- V2/F ([3]; Kidney): 52.2
- AUC ([3]; Liver): 197 µg·h/g
- Beta-HL ([3]; Liver): 2.43 h
- V2/F ([3]; Liver): 35.8
- AUC ([3]; Lung): 77 µg·h/g
- Beta-HL ([3]; Lung): 2.58 h
- V2/F ([3]; Lung): 96.7
- AUC ([3]; Spleen): 40 µg·h/g
- Beta-HL ([3]; Spleen): 2.60 h
- V2/F ([3]; Spleen): 74.5
- Tissue/plasma exposure ratio (% AUC organ vs. AUC plasma) ([3]; adipose tissue): 180%
- Kp ([3]; adipose tissue, adipose tissue, read-out: Tissue/plasma exposure ratio (% AUC organ vs. AUC plasma)): 1.88
- Kp ([3]; bone marrow, bone marrow, concentrations normalized to tissue weight/g, read-out: Tissue/plasma exposure ratio (% AUC organ vs. AUC plasma)): 0.3
- Kp ([3]; brain, brain, read-out: Tissue/plasma exposure ratio (% AUC organ vs. AUC plasma; concentration in brain vs plasma)): 0.15
- Kp ([3]; kidney, kidney, read-out: Tissue/plasma exposure ratio (% AUC organ vs. AUC plasma)): 1.5
- Kp ([3]; liver, liver, read-out: Tissue/plasma exposure ratio (% AUC organ vs. AUC plasma)): 2.05
- Kp ([3]; lung, lung, read-out: Tissue/plasma exposure ratio): 0.8
- Kp ([3]; spleen, spleen, read-out: Tissue/plasma exposure ratio): 0.5
- Cmax ([3]; Adipose tissue): 48700 ng/g
- Cmax ([3]; Bone marrow): 10600 ng/g
- Cmax ([3]; Brain): 4100 ng/g
- Cmax ([3]; Kidney): 36000 ng/g
- Cmax ([3]; Liver): 52400 ng/g
- Cmax ([3]; Lung): 19300 ng/g
- Cmax ([3]; Spleen): 27700 ng/g
- Tissue/plasma exposure ratio (% AUC organ vs. AUC plasma) ([3]; liver): 200%
- IC50 (CDK5/p25): 0.12 µM
- IC50 (casein kinase 1 (CK1)): 0.61 µM
- IC50 (tumor cell lines; different cell lines, read-out: Optimal concentration for pharmacological effect in-vitro in different cell lines (reported average IC50)): ~0.7 µM and 0.7 µM
- Anti-tumor IC50 values found in-vitro (tumor cell lines; in-vitro, reference not given): 0.3 µg/mL
- Potency as CDK inhibitor relative to roscovitine (CDK): 2–4 fold

Structure (SMILES): CC[C@H](CO)Nc1nc(NCc2ccccc2)c2ncn(C(C)C)c2n1 [roscovitine]
- Reported half-life [4]: approximately 1 hour
- Distribution to bone marrow [5]: 1.5%
